We go through ten compounds from ChEMBL document CHEMBL1201862, “PubChem BioAssay data set” (2004).

Some test systems named below: CAKI-1; CCRF-CEM; COLO 205; DU-145; HCC 2998; K562; MDA-MB-435; Malme-3M; OVCAR-4; OVCAR-8; PC-3; RXF 393; SK-MEL-5; SK-OV-3; SNB-19; SNB-75; TK-10; U-251; UO-31; NCI-H460.
Test in all cases: DTP human tumour cell line panel, 48 h

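Briefly, cells in 96-well plates were exposed to five compound concentrations for 48 h, and endpoints were estimated by linear interpolation. Abbreviation: GI50, concentration required for 50% inhibition of growth.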 Calls of active or inactive are those of the source. Cut-off read from the data, not from the text of the source: active = GI50 up to about 1.1 µM and inactive = higher.

The term GI50 denotes the concentration that inhibits growth by half. Regarding `Cc1ccc(C(=C2Sc3ccccc3S2)C(=C2Sc3ccccc3S2)c2ccc(C)s2)s1`, the GI50 in the experiment with CAKI-1, in the experiment with CCRF-CEM, in the experiment with COLO 205, in the experiment on DU-145, in the experiment on HCC 2998 and in the experiment with K562 was > 100 µM (inactive) in each case. For the same compound, the GI50 in the experiment on MDA-MB-435, in the experiment on Malme-3M, with OVCAR-4, with OVCAR-8, with PC-3 and in the experiment with RXF 393 was > 100 µM (inactive) throughout. Moreover, the GI50 in the experiment on SK-MEL-5, in the experiment with SK-OV-3, in the experiment with SNB-19, in the experiment on SNB-75, with TK-10 and with U-251 was > 100 µM (inactive) in each case. For the same compound, in the experiment on UO-31, the GI50 was > 100 µM (inactive).

Regarding `CCCN(CCCc1ccccc1)CCc1ccc2[nH]c(=S)[nH]c2c1`, the GI50 in the experiment on CAKI-1 is 28.9 µM (inactive); in the experiment with COLO 205, 16.8 µM (inactive); with DU-145, 44.3 µM (inactive); in the experiment with HCC 2998, 13.3 µM (inactive); in the experiment on K562, 2.02 µM (inactive); in the experiment with MDA-MB-435 it was 18.7 µM (inactive). Further, the GI50 in the experiment on Malme-3M is 12.9 µM (inactive); in the experiment on NCI-H460 it was 13.2 µM (inactive); in the experiment on OVCAR-4 it was 76.4 µM (inactive); in the experiment with OVCAR-8, 28.8 µM (inactive); in the experiment with PC-3, 41.6 µM (inactive); in the experiment on RXF 393, 11.2 µM (inactive). Further, the GI50 in the experiment with SK-OV-3 is 53.8 µM (inactive); in the experiment with SNB-19, 26.1 µM (inactive); with SNB-75, 21.1 µM (inactive); with TK-10, 71.1 µM (inactive); in the experiment on U-251, 33.4 µM (inactive); in the experiment on UO-31, 6.75 µM (inactive).

As to `COc1c2c(c(OC)c3c1c(=O)c1ccccc1n3C)OCO2`, the GI50 in the experiment on CAKI-1 is 37.4 µM (inactive); in the experiment with CCRF-CEM, 4.35 µM (inactive); with COLO 205, 7.66 µM (inactive); in the experiment with DU-145, 36.5 µM (inactive); in the experiment on HCC 2998, 5.2 µM (inactive); in the experiment on K562, 0.703 µM (active). Further, the GI50 was 2.28 µM (inactive) with MDA-MB-435; 8.49 µM (inactive) in the experiment on NCI-H460; 24.6 µM (inactive) with OVCAR-4; 27.1 µM (inactive) in the experiment on OVCAR-8; 19.7 µM (inactive) with PC-3; 6.07 µM (inactive) in the experiment on RXF 393. For the same compound, the GI50 with SK-MEL-5 is 3.14 µM (inactive); in the experiment with SK-OV-3, 25.5 µM (inactive); in the experiment on SNB-19, 26.5 µM (inactive); in the experiment with SNB-75 it was 6.68 µM (inactive); in the experiment with TK-10 it was > 100 µM (inactive); in the experiment with U-251, 19.1 µM (inactive). The GI50 in the experiment on UO-31 is 39.4 µM (inactive).

As to `CC[C@H](C)C(=O)O[C@H]1CCC=C2C=C[C@H](C)[C@H](CC[C@@H]3C[C@@H](O)CC(=O)O3)[C@H]21` [MEVASTATIN], the GI50 is 3.37 µM (inactive) with CAKI-1; 12.9 µM (inactive) with COLO 205; > 92.3 µM (inactive) in the experiment with DU-145; 25.6 µM (inactive) in the experiment with HCC 2998; 30.1 µM (inactive) with K562; 24.1 µM (inactive) with MDA-MB-435. The GI50 is 34.1 µM (inactive) in the experiment on Malme-3M; 28 µM (inactive) in the experiment on NCI-H460; 43.1 µM (inactive) with OVCAR-4; 8.26 µM (inactive) in the experiment with OVCAR-8; 2.26 µM (inactive) in the experiment with PC-3; 14.3 µM (inactive) in the experiment with RXF 393. Moreover, the GI50 with SK-MEL-5 is 20.6 µM (inactive); in the experiment on SK-OV-3, 44.3 µM (inactive); in the experiment on SNB-19 it was 16.4 µM (inactive); in the experiment with SNB-75, 2.07 µM (inactive); in the experiment with TK-10, 36.6 µM (inactive); in the experiment on U-251 it was 3.62 µM (inactive). Moreover, the GI50 with UO-31 is 9.06 µM (inactive).

With `FC(F)(F)c1ccc2c(c1)nc(-c1ccccc1)n2CC1CCCN2CCCCC12` (stereo not drawn), the GI50 is 17.3 µM (inactive) in the experiment on CAKI-1; 13 µM (inactive) with COLO 205; 27 µM (inactive) with DU-145; 16 µM (inactive) with HCC 2998; 21.1 µM (inactive) with K562; 18.3 µM (inactive) with MDA-MB-435. The GI50 in the experiment on Malme-3M is 13.7 µM (inactive); in the experiment on NCI-H460, 19.6 µM (inactive); in the experiment on OVCAR-4 it was 34.8 µM (inactive); in the experiment on OVCAR-8, 18.6 µM (inactive); in the experiment on PC-3, 15.3 µM (inactive); with RXF 393, 19 µM (inactive). Further, the GI50 is 14.9 µM (inactive) with SK-MEL-5; 16.9 µM (inactive) with SK-OV-3; 34.8 µM (inactive) in the experiment with SNB-19; 19.3 µM (inactive) in the experiment with SNB-75; 19.6 µM (inactive) in the experiment with TK-10; 20.3 µM (inactive) in the experiment with U-251. Further, the GI50 with UO-31 is 0.27 µM (active).

With `CN(CCNC(=O)c1cc(-c2ccccc2)nc2ccccc12)CCNC(=O)c1cc(-c2ccccc2)nc2ccccc12`, the GI50 with CAKI-1 was > 100 µM (inactive); with CCRF-CEM it was 4.69 µM (inactive); with COLO 205 it was 2.22 µM (inactive); in the experiment on DU-145, 12.5 µM (inactive); in the experiment on HCC 2998, 2.43 µM (inactive); with K562, 3.55 µM (inactive). Further, the GI50 with MDA-MB-435 was 6.92 µM (inactive); in the experiment on Malme-3M it was 2.12 µM (inactive); in the experiment with NCI-H460, 8.87 µM (inactive); in the experiment on OVCAR-8, > 28.1 µM (inactive); with PC-3, 10.3 µM (inactive); in the experiment on RXF 393 it was 8.67 µM (inactive). For the same compound, the GI50 was 2.31 µM (inactive) with SK-MEL-5; > 100 µM (inactive) with SK-OV-3; > 60 µM (inactive) with SNB-19; 7.53 µM (inactive) in the experiment with SNB-75; > 100 µM (inactive) in the experiment with TK-10; 8.75 µM (inactive) with U-251. For the same compound, the GI50 with UO-31 is 7.1 µM (inactive).

As for `Cc1cc2ccccc2n2c1nc1ccc(O)cc12`, the GI50 in the experiment with CAKI-1, with CCRF-CEM, with COLO 205, with DU-145, with HCC 2998 and with K562 was > 10 µM (inactive) each time. The GI50 in the experiment on MDA-MB-435 was > 10 µM (inactive); with Malme-3M, > 10 µM (inactive); with NCI-H460 it was 5.36 µM (inactive); in the experiment with OVCAR-4, > 10 µM (inactive); with OVCAR-8, 7.29 µM (inactive); in the experiment on PC-3, > 10 µM (inactive). The GI50 in the experiment with RXF 393 was > 10 µM (inactive); in the experiment on SK-MEL-5, > 10 µM (inactive); in the experiment on SK-OV-3, > 10 µM (inactive); in the experiment with SNB-19, > 10 µM (inactive); in the experiment on SNB-75, 5 µM (inactive); with TK-10 it was > 10 µM (inactive). Also, in the experiment with U-251, the GI50 is 7.71 µM (inactive).

Take `ClCc1nc2ccccc2[nH]1`: the GI50 with CAKI-1, with CCRF-CEM, in the experiment with COLO 205, in the experiment with DU-145, in the experiment on HCC 2998 and in the experiment with K562 was > 100 µM (inactive) throughout. Besides, the GI50 in the experiment on MDA-MB-435 was > 100 µM (inactive); in the experiment on Malme-3M, 34.5 µM (inactive); in the experiment with NCI-H460, > 100 µM (inactive); in the experiment with OVCAR-4, > 100 µM (inactive); with OVCAR-8, > 100 µM (inactive); with PC-3, > 100 µM (inactive). Besides, the GI50 was > 100 µM (inactive) in the experiment on RXF 393; > 100 µM (inactive) with SK-MEL-5; > 100 µM (inactive) with SNB-19; 66.8 µM (inactive) with SNB-75; > 100 µM (inactive) in the experiment on TK-10; > 100 µM (inactive) in the experiment with U-251. Further, the GI50 in the experiment with UO-31 is > 100 µM (inactive).

Consider `CC12CCC(/C(=N/c3cc(C(F)(F)F)cc(C(F)(F)F)c3)C1=O)C2(C)C` (stereo not drawn), for which the GI50 with CAKI-1 was 44 µM (inactive); in the experiment with CCRF-CEM it was 0.453 µM (active); in the experiment on COLO 205 it was 19.1 µM (inactive); in the experiment on DU-145 it was 40.6 µM (inactive); with HCC 2998, 26.3 µM (inactive); with K562 it was 29.6 µM (inactive). Further, the GI50 in the experiment on MDA-MB-435 was 38.3 µM (inactive); with Malme-3M it was 33.4 µM (inactive); in the experiment on NCI-H460 it was 33.4 µM (inactive); with OVCAR-4, 44 µM (inactive); in the experiment on OVCAR-8 it was 81.5 µM (inactive); in the experiment on PC-3, 27.5 µM (inactive). Moreover, the GI50 was 12.3 µM (inactive) in the experiment with RXF 393; 48.2 µM (inactive) in the experiment on SK-MEL-5; > 100 µM (inactive) in the experiment on SK-OV-3; 49.4 µM (inactive) with SNB-19; 37.2 µM (inactive) with TK-10; 35.4 µM (inactive) with U-251. The GI50 in the experiment with UO-31 was 52 µM (inactive).

As to `O=S(=O)(O)CCCC1S(=O)(=O)OCCOS1(=O)=O`, the GI50 in the experiment on CAKI-1, in the experiment with COLO 205, in the experiment on DU-145, with HCC 2998, with MDA-MB-435 and with Malme-3M was > 100 µM (inactive) throughout. The GI50 with NCI-H460, in the experiment with OVCAR-4, in the experiment with OVCAR-8, with PC-3, with RXF 393 and in the experiment on SK-MEL-5 was > 100 µM (inactive) throughout. In addition, the GI50 with SK-OV-3 is > 100 µM (inactive); in the experiment on SNB-19, > 100 µM (inactive); with SNB-75 it was 0.745 µM (active); with TK-10, > 100 µM (inactive); in the experiment with U-251, > 100 µM (inactive); in the experiment with UO-31, > 100 µM (inactive).
